Measured values taken from patent US7625894B2, “Pyrrolo[2,3-d]Pyrimidines as Protein Tyrosine Kinase Inhibitors” (Novartis AG, priority 2004, dated 2009).

Columns and labels:
Bcr-Abl = molecular target: T1, Bcr-Abl (Homo sapiens, UniProt P00519); test: Test for activity against Bcr-Abl (phosphorylation ELISA in 32D-bcr/abl cells); type: cell-based, murine; details: 32D cells transfected with p210 Bcr-Abl; ELISA of Bcr-Abl phosphorylation; read-out: bcrabl32DcEL/ Average<32Dp210IC50 [umol l−1]>
T1 construct: host or cells: murine myeloid progenitor cell line 32Dcl3 (32D-bcr/abl); the other entry of the earlier key: BCR (P11274, Breakpoint cluster region protein)
T1 sequence (P00519 28-1130 limits assumed): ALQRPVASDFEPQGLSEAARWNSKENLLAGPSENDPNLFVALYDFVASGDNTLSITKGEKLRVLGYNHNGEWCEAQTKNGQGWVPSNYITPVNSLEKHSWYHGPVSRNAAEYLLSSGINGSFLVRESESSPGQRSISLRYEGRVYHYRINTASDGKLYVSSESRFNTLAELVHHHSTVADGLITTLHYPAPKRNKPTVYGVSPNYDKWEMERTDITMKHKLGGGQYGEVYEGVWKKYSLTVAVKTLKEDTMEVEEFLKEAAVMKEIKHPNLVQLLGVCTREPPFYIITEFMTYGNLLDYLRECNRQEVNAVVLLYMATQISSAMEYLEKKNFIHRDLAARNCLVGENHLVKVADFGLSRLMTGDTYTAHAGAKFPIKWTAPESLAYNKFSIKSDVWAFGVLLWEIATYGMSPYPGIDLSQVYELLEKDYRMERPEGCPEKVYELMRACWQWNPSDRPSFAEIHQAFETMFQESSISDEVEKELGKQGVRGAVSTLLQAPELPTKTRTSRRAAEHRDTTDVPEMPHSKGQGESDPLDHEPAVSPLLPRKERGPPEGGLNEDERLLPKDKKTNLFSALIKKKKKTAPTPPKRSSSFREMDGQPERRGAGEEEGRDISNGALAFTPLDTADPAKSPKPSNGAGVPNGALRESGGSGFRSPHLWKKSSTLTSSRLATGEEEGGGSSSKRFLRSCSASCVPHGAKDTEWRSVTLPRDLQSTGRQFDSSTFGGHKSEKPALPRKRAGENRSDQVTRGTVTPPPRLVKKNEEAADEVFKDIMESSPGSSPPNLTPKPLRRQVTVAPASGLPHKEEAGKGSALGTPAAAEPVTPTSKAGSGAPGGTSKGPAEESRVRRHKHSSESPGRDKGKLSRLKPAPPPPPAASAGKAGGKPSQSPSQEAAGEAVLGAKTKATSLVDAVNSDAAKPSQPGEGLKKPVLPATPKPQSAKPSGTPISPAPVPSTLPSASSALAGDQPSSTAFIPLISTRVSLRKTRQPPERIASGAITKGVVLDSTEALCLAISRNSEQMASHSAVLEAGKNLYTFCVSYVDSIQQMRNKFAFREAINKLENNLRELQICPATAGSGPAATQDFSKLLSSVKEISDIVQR
Procedure: Test for activity against Bcr-Abl. The murine myeloid progenitor cell line 32Dcl3 transfected with the p210 Bcr-Abl expression vector pGDp210Bcr/Abl (32D-bcr/abl) was obtained from J. Griffin (Dana Faber Cancer Institute, Boston, Mass., USA). The cells express the fusion Bcr-Abl protein with a constitutively active Abl kinase and proliferate growth factor independent. The cells are expanded in RPMI 1640 (AMIMED), 10% fetal calf serum, 2 mM glutamine (Gibco) (“complete medium”), and a working stock is prepared by freezing aliquots of 2×10^6 cells per vial in freezing medium (95% FCS, 5% DMSO (SIGMA)). After thawing, the cells are used during maximally 10-12 passages for the experiments.
For cellular assays, compounds are dissolved in DMSO and diluted with complete medium to yield a starting concentration of 10 μM followed by preparation of serial 3-fold dilutions in complete medium. 200,000 32D-Bcr/Abl cells in 50 μL complete medium are seeded per well in 96 well round bottom tissue culture plates. 50 μL per well of serial 3-fold dilutions of the test compound are added to the cells in triplicates. Untreated cells are used as control. The compound is incubated together with the cells for 90 min at 37° C., 5% CO2, followed by centrifugation of the tissue culture plates at 1300 rpm (Beckman GPR centrifuge) and removal of the supernatants by careful aspiration taking care not to remove any of the pelleted cells. The cell pellets are lysed by addition of 150 μL lysis buffer (50 mM Tris/HCl, pH 7.4, 150 mM sodium chloride, 5 mM EDTA, 1 mM EGTA, 1% NP-40, 2 mM sodium ortho-vanadate, 1 mM PMSF, 50 μg/mL aprotinin and 80 μg/mL leupeptin) and either used immediately for the ELISA or stored frozen in the plates at −20° C. until usage.
Black ELISA plates (Packard HTRF-96 black plates) are precoated over night at 4° C. with 50 ng/well of the rabbit polyclonal anti-abl-SH3 domain Ab 06-466 from Upstate in 50 μL PBS. After washing 3 times with 200 μL/well PBS containing 0.05% Tween20 (PBST) and 0.5% TopBlock (Juro), residual protein binding sites are blocked with 200 μL/well PBST, 3% TopBlock for 4 h at room temperature followed by incubation with 50 μL lysates of untreated or compound-treated cells (20 μg total protein per well) for 3-4 h at 4° C. After 3 washings, 50 μL/well anti-phosphotyrosine Ab PY20(AP) labeled with alkaline phosphatase (Zymed) diluted to 0.2 μg/mL in blocking buffer is added and incubated over night (4° C.). For all incubation steps the plates are covered with plate sealers (Costar). Finally, the plates are washed another three times with washing buffer and once with deionized water before addition of 90 μL/well of the AP-substrate CDPStar RTU with Emerald II. The plates, now sealed with Packard TopSeal™-A plate sealers, are incubated for 45 min at room temperature in the dark and luminescence is quantified by measuring counts per second (CPS) with a Packard Top Count Microplate Scintillation Counter (Top Count). The difference between the ELISA-readout (CPS) obtained for with the lysates of the untreated 32D-Bcr/Abl cells and the readout for the assay-background (all components, but without cell lysate) is calculated and taken as 100% reflecting the constitutively phosphorylated Bcr-Abl protein present in these cells. The activity of the compound on the Bcr-Abl kinase activity is expressed as percent reduction of the Bcr-Abl phosphorylation. The values for the IC50 and IC90 are determined from the dose response curves by graphical extrapolation.

c-Abl = molecular target: T2, c-Abl (Homo sapiens, UniProt P00519); test: Test for activity against c-Abl protein tyrosine kinase (filter binding assay); type: biochemical
T2 construct: The His-tagged kinase domain of c-Abl is cloned and expressed in the baculovirus/Sf9 system; His; made in house; host or cells: baculovirus/Sf9
T2 sequence (P00519 242-493 limits assumed): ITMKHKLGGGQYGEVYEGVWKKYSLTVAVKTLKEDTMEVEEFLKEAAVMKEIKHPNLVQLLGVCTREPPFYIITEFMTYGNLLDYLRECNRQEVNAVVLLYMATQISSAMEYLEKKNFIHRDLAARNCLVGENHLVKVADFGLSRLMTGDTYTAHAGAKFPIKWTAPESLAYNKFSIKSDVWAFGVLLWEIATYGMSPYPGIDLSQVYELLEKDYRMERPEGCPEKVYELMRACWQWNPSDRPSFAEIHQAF
Procedure: Test for activity against c-Abl protein tyrosine kinase. The test is conducted as a filter binding assay as follows: The His-tagged kinase domain of c-Abl is cloned and expressed in the baculovirus/Sf9 system as described by Bhat et al., J. Biol. Chem. 272, 16170-5 (1997). A protein of 37 kD (c-Abl kinase) is purified by a two-step procedure over a cobalt metal chelate column followed by an anion exchange column with a yield of 1-2 mg/L of Sf9 cells. The purity of the c-Abl kinase is >90% as judged by SDS-PAGE after Coomassie blue staining. The assay contains: c-Abl kinase (50 ng), 20 mM Tris.HCl, pH 7.5, 10 mM MgCl2, 10 μM Na3VO4, 1 mM DTT and 0.06 μCi/assay [γ^33 P]-ATP (5 μM ATP) using 30 μg/mL poly-Ala,Glu,Lys,Tyr-6:2:5:1 (Poly-AEKY, Sigma P1152) in the presence of 1% DMSO, total volume of 30 μL. Reactions are terminated by adding 10 μL of 250 mM EDTA, and 30 μL of the reaction mixture is transferred onto Immobilon-PVDF membrane (Millipore, Bedford, Mass., USA) previously soaked for 5 min with methanol, rinsed with water, then soaked for 5 min with 0.5% H3PO4 and mounted on vacuum manifold with disconnected vacuum source. After spotting all samples, vacuum is connected and each well rinsed with 200 μL 0.5% H3PO4. Membranes are removed and washed on a shaker with 0.5% H3PO4 (4 times) and once with ethanol. Membranes are counted after drying at ambient temperature, mounting in Packard TopCount 96-well frame, and addition of 10 μL/well of Microscint™ (Packard).

EGF-R (HER-1) = EGF-R (HER-1) (Homo sapiens, UniProt P00533); test: Inhibition of the tyrosine kinase activity of EGF-R (HER-1); type: biochemical; parameters: dose or concentration left out as unconfirmed

IC50 (Bcr-Abl) [nM] | IC50 (c-Abl) [nM] | HER-1/ %-inh. [%] (EGF-R (HER-1)) | melting point [°C] | Compound
797 | 19 | 59 | 275 to 277 | CN1CCN(C(=O)c2ccc(-c3cc4c(N(C)C)ncnc4[nH]3)cc2)CC1 [Example 3, [4-(4-Dimethylamino-7H-pyrrolo[2,3-d]pyrimidin-6-yl)-phenyl]-(4-methyl-piperazin-1-yl)-methanone]
729 | 32 | 64 | 252 to 254 | CN1CCN(Cc2ccc(-c3cc4c(N(C)C)ncnc4[nH]3)cc2)CC1 [Example 4, Dimethyl-{6-[4-(4-methyl-piperazin-1-ylmethyl)-phenyl]-7H-pyrrolo[2,3-d]pyrimidin-4-yl}-amine]
– | 21 | 58 | – | CCN(CC)CCCNC(=O)c1ccc(-c2cc3c(N(C)C)ncnc3[nH]2)cc1 [Example 5, N-(3-Diethylamino-propyl)-4-(4-dimethylamino-7H-pyrrolo[2,3-d]pyrimidin-6-yl)-benzamide]
935 | 2.6 | 70 | 316 to 318 | CN(C)c1ncnc2[nH]c(-c3ccc(C(=O)N4CCOCC4)cc3)cc12 [Example 6, [4-(4-Dimethylamino-7H-pyrrolo[2,3-d]pyrimidin-6-yl)-phenyl]-morpholin-4-yl-methanone]
917 | 25 | 59 | 260 to 262 | CN(C)c1ncnc2[nH]c(-c3ccc(C(=O)NCCCN4CCOCC4)cc3)cc12 [Example 7, 4-(4-Dimethylamino-7H-pyrrolo[2,3-d]pyrimidin-6-yl)-N-(3-morpholin-4-yl-propyl)-benzamide]
– | 4 | 85 | 315 | CNc1ncnc2[nH]c(-c3ccc(C(=O)N4CCN(C)CC4)cc3)cc12 [Example 12, [4-(4-Methylamino-7H-pyrrolo[2,3-d]pyrimidin-6-yl)-phenyl]-(4-methyl-piperazin-1-yl)-methanone]
– | 14 | 94 | 302 to 305 | CN1CCN(C(=O)c2ccc(-c3cc4c(NCCCO)ncnc4[nH]3)cc2)CC1 [Example 15, {4-[4-(3-Hydroxy-propylamino)-7H-pyrrolo[2,3-d]pyrimidin-6-yl]-phenyl}-(4-methyl-piperazin-1-yl)-methanone]
50.8 | 11 | 94 | – | CNc1ncnc2[nH]c(-c3ccc(CN4CCN(C)CC4)cc3)cc12 [Example 16, Methyl-{6-[4-(4-methyl-piperazin-1-ylmethyl)-phenyl]-7H-pyrrolo[2,3-d]pyrimidin-4-yl}-amine]
1630 | 5 | 95 | 302 to 305 | CCCNc1ncnc2[nH]c(-c3ccc(C(=O)N4CCN(C)CC4)cc3)cc12 [Example 17, (4-Methyl-piperazin-1-yl)-[4-(4-propylamino-7H-pyrrolo[2,3-d]pyrimidin-6-yl)-phenyl]-methanone]
939 | 6 | 98 | 232 to 234 | CCCNc1ncnc2[nH]c(-c3ccc(CN4CCN(C)CC4)cc3)cc12 [Example 18, {6-[4-(4-Methyl-piperazin-1-ylmethyl)-phenyl]-7H-pyrrolo[2,3-d]pyrimidin-4-yl}-propyl-amine]
2070 | 11 | 97 | – | CCCN(C)c1ncnc2[nH]c(-c3ccc(CN4CCN(C)CC4)cc3)cc12 [Example 19, Methyl-{6-[4-(4-methyl-piperazin-1-ylmethyl)-phenyl]-7H-pyrrolo[2,3-d]pyrimidin-4-yl}-propyl-amine]
790 | 11 | 93 | – | CN(C)c1ncnc2[nH]c(-c3ccc(Cn4ccnc4)cc3)cc12 [Example 24, [6-(4-Imidazol-1-ylmethyl-phenyl)-7H-pyrrolo[2,3-d]pyrimidin-4-yl]-dimethylamine]
≥ 10000 | 9 | 57 | 285 to 287 | CN(C)c1ncnc2[nH]c(-c3ccc(Cc4ccc[nH]4)cc3)cc12 [Example 25, Dimethyl-{6-[4-(1H-pyrrol-2-ylmethyl)-phenyl]-7H-pyrrolo[2,3-d]pyrimidin-4-yl}-amine]
409 | – | 85 | 218 to 220 | CN(C)c1ncnc2[nH]c(-c3ccc(CNCCCO)cc3)cc12 [Example 28, 3-[4-(4-Dimethylamino-7H-pyrrolo[2,3-d]pyrimidin-6-yl)-benzylamino]-propan-1-ol]
274 | – | 79 | 157 to 158 | COCCN(C)Cc1ccc(-c2cc3c(N(C)C)ncnc3[nH]2)cc1 [Example 29, [6-(4-{[(2-Methoxy-ethyl)-methyl-amino]-methyl}-phenyl)-7H-pyrrolo[2,3-d]pyrimidin-4-yl]-dimethyl-amine]
– | 10 | 90 | 280 to 283 | CNc1ncnc2[nH]c(-c3ccc(C(C)(C)O)cc3)cc12 [Example 35, 2-[4-(4-Methylamino-7H-pyrrolo[2,3-d]pyrimidin-6-yl)-phenyl]-propan-2-ol]
292 | 35 | 78 | – | [4-(4-Methylamino-7H-pyrrolo[2,3-d]pyrimidin-6-yl)-phenyl]-morpholin-4-yl-methanone [Example 2]
